Legend:
[1] = test system: HIV-1YU2 virus in CD4 negative Cf2Th-CCR5 cells; conditions: cells lacking the CD4 receptor (CD4–CCR5+ Cf2Th cells); cited from earlier work
[2] = target: full-length gp120 (Human immunodeficiency virus type 1 group M subtype B, UniProt P35961); conditions: gp120 binding; cited from earlier work
[3] = test system: 42 Tier 2 clade B and C viruses; conditions: read-out: geometric mean titers (GMT) IC50, sensitive strains; cited from earlier work
[4] = test system: clade C viruses; test: Neutralization of clade C Env pseudoviruses; assay type: cell-based, HIV-1
[5] = test system: clade B viruses; test: Neutralization of clade B Env pseudoviruses; assay type: cell-based, HIV-1

For `CC1(C)CC(NC(=O)C(=O)Nc2ccc(Cl)cc2)CC(C)(C)N1` [Compound 1, NBD-556], the CD4-independent viral entry [1] is given as “agonists of CD4-independent viral entry”, the ΔH [2] is given as -24.5 kcal/mol and the “−TΔS” value [2] is given as 17.1 kcal/mol.

For `N=C(N)N[C@@H]1Cc2ccccc2[C@H]1NC(=O)C(=O)Nc1ccc(Cl)c(F)c1` [(−)-3], the IC50 [3] is listed as 8.9 µM.

In the case of `N=C(N)NC[C@H]1Cc2ccccc2[C@@H]1NC(=O)C(=O)Nc1ccc(Cl)c(F)c1.O=CO` [(+)-4], the neutralization breadth [4] is reported as 59%, the “improvement over (+)-3 based on IC50 titers” value [5] is reported as 60% and the “improvement over (+)-3 based on IC80 titers” value [5] is reported as 1.5 fold. For the same compound, the neutralization breadth [5] was 100%.

In the case of `N=C(N)N[C@H]1Cc2ccccc2[C@@H]1NC(=O)C(=O)Nc1ccc(Cl)c(F)c1` [(+)-3], the IC50 [3] is listed as 7.9 µM.

Source: PMC3647702 (ACS medicinal chemistry letters, 2013)
